This is an account of results in patent US12215389B2, “Compositions for detecting epigenetic modifications” (EXACT SCIENCES CORPORATION, priority 2007, dated 2025).

The subject of the data set is methylated gene promoters in FFPE tissue DNA. Nature of the data set: Real-time MSP on colon tissue samples. Set-up: species or system human. The note with it: for Specificity (%) / Sensitivity (%): 50 cases (adenoma + carcinoma) vs 39 controls, tissue. The protocol:
Real-time MSP was applied on a 7900HT fast real-time PCR system (Applied Biosystems). 2.4 μl of the modified DNA (equivalent to 2.5 μg unconverted DNA) was added to a PCR mix (total volume 12 μl) containing buffer (16.6 mM (NH4)2SO4, 67 mM Tris (pH 8.8), 6.7 mM MgCl2, 10 mM β-mercaptoethanol), dNTPs (5 mM), forward primer (6 ng), reverse primer (18 ng), molecular beacon (0.16 μM), BSA (0.1 μg), and Jumpstart DNA Taq polymerase (0.4 units; Sigma Aldrich). Cycle program used was as follows: 5 minutes 95° C., followed by 45 cycles of 30 seconds 95° C., 30 seconds 57° C. (51° C. for APC), and 30 seconds 72° C., followed by 5 minutes 72° C. A standard curve (2×106—20 copies) was included to determine copy numbers of unknown samples by interpolation of their Ct values to the standard curve.
Marker selection in colon tissue: Based on re-expression, 224 different gene assays representing 145 gene promotors were tested on the Base5 methylation profiling platform (data not shown, see reference 1 for details). The 37 most differentially methylated gene sequences assessing 29 gene promoters were validated on retrospectively collected tumors from 65 colorectal cancer patients (all stages) and 74 distant resection ends (histopathologically normal) using real-time MSP. Several markers reliably detected CRC in those tissue samples (data not shown). The results were confirmed on an independent test set containing 39 tissue controls (non-cancerous), 34 carcinomas and 16 adenomas. Several combinations of the tested markers reliably detected CRC with high specificity and sensitivity.
The ten best performing markers GATA5, GATA4, SFRP1, SFRP2, APC, MGMT, NDRG4, OSMR, JPH3 and ADAM23 were validated with primer sets and beacon probes as specified in Table 24. In addition to the colon test genes, the independent reference gene β-Actin (ACT) was also measured. The ratios between the colon test genes and ACT were calculated, and are the test result of the assay.
Marker candidates identified by re-expression were screened using 37 real-time methylation specific PCR (real-time MSP) assays. These assays were used to assess the methylation status of 29 gene promoters in 293 formalin-fixed paraffin-embedded (FFPE) tissue samples collected from various clinics. Samples included 99 carcinomas of various stages, 16 adenomas, 63 samples from patients with cancer other than CRC (20 breast [stages I-III], 22 bladder [stages I-III], 21 lung [stages I and II]), 39 samples from patients with no evidence of cancer and 76 distant resection ends (histopathologically normal) from CRC patients. These samples were divided into training and independent test sets, and used to select the gene methylation assays best able to discriminate between cancerous and non-cancerous samples. The training set included retrospectively collected tumors from 65 colorectal cancer patients (all stages) and 74 distant resection ends. Using the 10 best performing genes the results were confirmed on an independent test set containing 59 samples from patients with cancer other than CRC, 39 non-cancerous controls and 50 cancer cases (34 carcinomas and 16 adenomas).
The individual performance of the 10 best performing tissue markers OSMR, SFRP1, GATA4, SFRP2, NDRG4, ADAM23, GATA5, MGMT, APC and JPH3 is shown in FIG. 7, when the analytical cut-off was set to give 100% specificity, except for JPH3 where a specificity of 95% was obtained (based on the 39 non-cancerous controls). In addition to the colon test genes, the independent reference gene β-Actin (ACT) was also measured. The ratios between the colon test genes and ACT were calculated, and are the test result of the assay.

Setting [1] is: 16 adenoma tissue samples vs 39 controls.
Where [2] appears, read: 34 carcinoma tissue samples vs 39 controls.
The mark [3] stands for this setting: second cut off ratio, between ( ).

In the case of “GATA5 (DNA AGTTCGTTTTTAGGTTAGTTTTCGGC; listed as DNA, chemistry not given here)”, the “Specificity (%)” value stood at 100%. Under setting [1], the Sensitivity is reported as 63% and the Specificity amounted to 100%. For the same substance, under setting [2], the Sensitivity is 53% and the Specificity is 100%. Moreover, where the note is “first cut off ratio”, the “Sensitivity (%)” value is recorded as 56%. The “Sensitivity (%)” value under setting [3] is reported as “(66) %”.

For the substance “SFRP1 (DNA TGTAGTTTTCGGAGTTAGTGTCGCGC; listed as DNA, chemistry not given here)”, the “Specificity (%)” value turned out to be 100%. Under setting [1], the Sensitivity is 88% and the Specificity was 100%. Moreover, under setting [2], the Sensitivity is listed as 82% and the Specificity worked out at 100%. Moreover, the “Sensitivity (%)” value (first cut off ratio) worked out at 84%. Moreover, the “Sensitivity (%)” value under setting [3] is on record as “(92) %”.
